#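 Compound exposure: 48 hours, 5 concentrations, 96-well plates. Here, GI50 denotes the concentration required for 50% inhibition of growth.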 The source made the active and inactive calls. No stated cut-off is given here; in the data, active = GI50 up to about 1.1 µM and inactive = higher.
# Experiments:
# Experiment in all cases: growth of human tumour cells (NCI), 48 h
# [1] = tested on: CAKI-1
# [2] = tested on: UO-31
# [3] = tested on: 786-0
# [4] = tested on: RPMI-8226
# [5] = tested on: MDA-MB-435
# [6] = tested on: HOP-62
# [7] = tested on: MDA-MB-231
# [8] = tested on: MCF7
# [9] = tested on: UACC-257
# [10] = tested on: HCT-116
# [11] = tested on: A498
# [12] = tested on: OVCAR-4
# [13] = tested on: Hs-578T
# [14] = tested on: SF-268
# [15] = tested on: SNB-19
# [16] = tested on: HCT-15
# [17] = tested on: M14
# [18] = tested on: BT-549
# [19] = tested on: SK-MEL-28
SMILES,GI50 [1],GI50 [2],GI50 [3],GI50 [4],GI50 [5],GI50 [6],GI50 [7],GI50 [8],GI50 [9],GI50 [10],GI50 [11],GI50 [12],GI50 [13],GI50 [14],GI50 [15],GI50 [16] [µM],GI50 [17],GI50 [18],GI50 [19]
CCC(C#N)N(Cc1ccc(CN(C(=O)c2ccccc2)C(C#N)CC)cc1)C(=O)c1ccccc1 (stereo not given),24.3 µM (inactive),19.7 µM (inactive),19.2 µM (inactive),14.5 µM (inactive),25.5 µM (inactive),20.9 µM (inactive),23.7 µM (inactive),19.2 µM (inactive),16.6 µM (inactive),17.6 µM (inactive),18.8 µM (inactive),17.4 µM (inactive),21.5 µM (inactive),29.4 µM (inactive),27 µM (inactive),22.2,36.6 µM (inactive),27.5 µM (inactive),–
CN(C)CC1CCC/C(=C\c2ccc(N(C)C)cc2)C1=O (stereo not given),1.8 µM (inactive),10.4 µM (inactive),3.34 µM (inactive),> 100 µM (inactive),5.4 µM (inactive),18.8 µM (inactive),4.78 µM (inactive),1.02 µM (active),13.5 µM (inactive),3.15 µM (inactive),17.1 µM (inactive),2.15 µM (inactive),3.58 µM (inactive),1.78 µM (inactive),17.7 µM (inactive),4.86,3.55 µM (inactive),16.2 µM (inactive),5.64 µM (inactive)
COC(=O)C1=C(O)C(C(=O)OC)[C@]2(O)[C@H](C(=O)OC)[C@H]1C[C@@H](c1ccc(Cl)cc1)[C@H]2C(=O)OC (stereo not given in full),7.73 µM (inactive),8.97 µM (inactive),6.41 µM (inactive),4.06 µM (inactive),3.67 µM (inactive),7.67 µM (inactive),16.5 µM (inactive),4.07 µM (inactive),7.6 µM (inactive),5.28 µM (inactive),11.7 µM (inactive),11.1 µM (inactive),3.89 µM (inactive),6.79 µM (inactive),5.5 µM (inactive),4.59,4.72 µM (inactive),6.12 µM (inactive),9.06 µM (inactive)
CSc1ccc(NC(=O)C2CCCCC2C(=O)O)cc1 (stereo not given),> 100 µM (inactive),> 100 µM (inactive),> 100 µM (inactive),> 100 µM (inactive),> 100 µM (inactive),> 100 µM (inactive),> 100 µM (inactive),> 100 µM (inactive),> 100 µM (inactive),> 100 µM (inactive),> 100 µM (inactive),> 100 µM (inactive),> 100 µM (inactive),> 100 µM (inactive),> 100 µM (inactive),> 100,> 100 µM (inactive),> 100 µM (inactive),> 100 µM (inactive)
COC(=O)C(Cc1c[nH]c2ccccc12)NP(=O)(O)OCC1OC(n2cc(I)c(=O)[nH]c2=O)CC1O (stereo not given),> 100 µM (inactive),> 100 µM (inactive),> 100 µM (inactive),> 100 µM (inactive),> 100 µM (inactive),> 100 µM (inactive),> 100 µM (inactive),> 100 µM (inactive),> 100 µM (inactive),> 100 µM (inactive),> 100 µM (inactive),> 100 µM (inactive),> 100 µM (inactive),> 100 µM (inactive),> 100 µM (inactive),> 100,> 100 µM (inactive),> 100 µM (inactive),> 100 µM (inactive)
COc1cc2c(cc1O)[C@@H]1Cc3c(cc(OC)c(OC)c3Oc3cc4c(cc3OC)CCN(C)[C@@H]4Cc3ccc(O)cc3)[C@H](C2)N1C,> 60.3 µM (inactive),> 84.9 µM (inactive),36.6 µM (inactive),27.9 µM (inactive),20.6 µM (inactive),> 95.5 µM (inactive),43.3 µM (inactive),55.5 µM (inactive),23.2 µM (inactive),48.1 µM (inactive),37 µM (inactive),33 µM (inactive),46 µM (inactive),> 78.9 µM (inactive),> 100 µM (inactive),> 78.9,18.2 µM (inactive),41.2 µM (inactive),18.6 µM (inactive)
CC(Br)C(=O)c1ccc2cc(Br)c3ccccc3c2c1 (stereo not given),16.1 µM (inactive),17.6 µM (inactive),3.34 µM (inactive),4.65 µM (inactive),14.5 µM (inactive),17.2 µM (inactive),16.3 µM (inactive),14.9 µM (inactive),16.9 µM (inactive),15.2 µM (inactive),18.7 µM (inactive),16.7 µM (inactive),23.1 µM (inactive),16.3 µM (inactive),17.4 µM (inactive),16.6,16.1 µM (inactive),15.1 µM (inactive),18.6 µM (inactive)
O=[N+]([O-])C(=C/C1CCCCC1)/C(=C\C1CCCCC1)[N+](=O)[O-],3.85 µM (inactive),7.87 µM (inactive),1.84 µM (inactive),0.316 µM (active),4.56 µM (inactive),3.71 µM (inactive),2.73 µM (inactive),5.3 µM (inactive),8.63 µM (inactive),6.43 µM (inactive),15.3 µM (inactive),18.9 µM (inactive),2.84 µM (inactive),3.27 µM (inactive),18.4 µM (inactive),1.85,4.05 µM (inactive),5.42 µM (inactive),5.06 µM (inactive)
COc1ccc(-n2c(N)c(C#N)c(C#N)c2-c2ccco2)cc1,> 100 µM (inactive),82.8 µM (inactive),> 100 µM (inactive),> 100 µM (inactive),> 100 µM (inactive),72.1 µM (inactive),> 100 µM (inactive),> 100 µM (inactive),> 100 µM (inactive),> 100 µM (inactive),> 100 µM (inactive),23.3 µM (inactive),39.7 µM (inactive),> 100 µM (inactive),> 100 µM (inactive),> 100,> 100 µM (inactive),9.23 µM (inactive),–
CCOC(=O)C1c2[nH]c3ccccc3c2CCN1C(=O)c1ccco1 (stereo not given),> 10 µM (inactive),–,> 10 µM (inactive),> 10 µM (inactive),> 10 µM (inactive),> 10 µM (inactive),> 10 µM (inactive),> 10 µM (inactive),> 10 µM (inactive),> 10 µM (inactive),9.73 µM (inactive),> 10 µM (inactive),> 10 µM (inactive),> 10 µM (inactive),> 10 µM (inactive),> 10,> 10 µM (inactive),> 10 µM (inactive),> 10 µM (inactive)
CCOC(=O)/C(C(=O)Nc1ccc(F)cc1)=C(/N)N1CCCC1,> 100 µM (inactive),–,> 100 µM (inactive),> 100 µM (inactive),> 100 µM (inactive),> 100 µM (inactive),> 100 µM (inactive),> 100 µM (inactive),> 100 µM (inactive),> 100 µM (inactive),> 100 µM (inactive),> 100 µM (inactive),> 100 µM (inactive),> 100 µM (inactive),> 100 µM (inactive),< 0.01,> 100 µM (inactive),92.9 µM (inactive),> 100 µM (inactive)

# — ChEMBL document CHEMBL1201862, “PubChem BioAssay data set” (2004)
